One assay deals with STAT1 (Homo sapiens (Human), UniProt P42224). The experiment in a line: IFN-induced STAT1 phosphorylation in GBM cells (western blotting). Format: cell-based. A general note: In western blotting, separated proteins are transferred to a membrane and probed.
For a further assay, the system named is MT300 GBM cells. Put plainly: Antiproliferative activity, CellTiter Glo assay, MT300 GBM cells. Format: cell-based. As to conditions: 72 h, read-out: IC50 (proliferation). Background: ATP-based viability assays read luminescence as a measure of living cells.
Another assay relates to LN299 GBM cells. Put plainly: Antiproliferative activity, CellTiter Glo assay, LN299 GBM cells. Format: cell-based. Particulars: 72 h, unit misprinted as 'and', read-out: IC50 (proliferation).
Another assay has as its system parental GBM cells. The experiment in a line: Proliferation of parental (empty vector) GBM cells, Incucyte live cell analysis. The assay is classed as cell-based. As to conditions: parental (EV) GBM cells.
The next assay relates to STAT3-KO GBM cells. The experiment in a line: Proliferation of STAT3-knockout GBM cells, Incucyte live cell analysis. Format: cell-based.
For another assay, the system named is MT330 glioma xenografts. Put plainly: Orthotopic MT330 glioma xenografts in mice, bioluminescent imaging. Format: in vivo. As to conditions: 20 mg/Kg in DMSO, into the peritoneum three times per week, female mice, BLI. As to the method: BLI pictures were taken at Day 21.
In brief, 10^6 luciferase-expressing MT330 GBM cells were injected orthotopically into the brains of female […] mice. […] Tumor growth was monitored by BLI two times per week as we have previously described.

Another assay has as its system MCF7 breast cancer cells. Put plainly: MTS cell viability assay in MCF7 breast cancer cells. Format: cell-based. As to conditions: 72 hours treatment, concentration not given. As to the method: MTS assay was used to determine the cell viability for all compounds tested. Computational docking scores were used to evaluate potential for STAT 3 inhibition (FIG. 9 and Table 3). MCF7 breast cancer cells were grown until 80-90% confluence. Cells were then transferred to a Costar 96-well plate with about 3000 cells per well. Cells were incubated for 24 hours. After incubation cells were treated with appropriate compounds and concentration for 72 hours. Twenty microliters of MTS solution was added to each well and incubated for 2 hours. The plate was then analyzed using […].
On the technique in general: Tetrazolium dyes change colour on reduction, which living cells bring about.

The target in another assay is STAT3 (Homo sapiens (Human), UniProt P40763). Put plainly: Inhibition of IFN-induced STAT3 phosphorylation in GBM cells (western blotting). Format: cell-based.
Sequence of STAT3 (P40763 whole entry): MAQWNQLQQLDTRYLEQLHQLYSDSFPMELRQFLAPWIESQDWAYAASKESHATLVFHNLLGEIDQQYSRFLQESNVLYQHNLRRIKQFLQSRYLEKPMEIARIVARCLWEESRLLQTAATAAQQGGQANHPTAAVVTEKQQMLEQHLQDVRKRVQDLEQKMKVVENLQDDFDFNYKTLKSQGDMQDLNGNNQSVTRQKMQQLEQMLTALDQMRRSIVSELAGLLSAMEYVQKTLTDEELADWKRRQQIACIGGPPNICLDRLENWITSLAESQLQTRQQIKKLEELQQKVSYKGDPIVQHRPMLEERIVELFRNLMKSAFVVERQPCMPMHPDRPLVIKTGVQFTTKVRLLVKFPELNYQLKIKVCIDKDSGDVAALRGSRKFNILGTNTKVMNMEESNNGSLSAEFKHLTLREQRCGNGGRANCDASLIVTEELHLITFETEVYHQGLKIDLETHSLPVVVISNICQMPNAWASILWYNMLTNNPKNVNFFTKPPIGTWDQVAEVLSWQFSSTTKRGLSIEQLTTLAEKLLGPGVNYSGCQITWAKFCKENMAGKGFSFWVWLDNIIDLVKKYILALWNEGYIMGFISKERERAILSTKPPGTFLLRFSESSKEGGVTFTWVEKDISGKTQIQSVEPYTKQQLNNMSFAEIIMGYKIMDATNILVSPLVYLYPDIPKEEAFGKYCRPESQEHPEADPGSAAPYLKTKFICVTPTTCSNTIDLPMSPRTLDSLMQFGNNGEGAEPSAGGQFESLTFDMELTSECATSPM

Sequence of STAT1 (P42224 whole entry): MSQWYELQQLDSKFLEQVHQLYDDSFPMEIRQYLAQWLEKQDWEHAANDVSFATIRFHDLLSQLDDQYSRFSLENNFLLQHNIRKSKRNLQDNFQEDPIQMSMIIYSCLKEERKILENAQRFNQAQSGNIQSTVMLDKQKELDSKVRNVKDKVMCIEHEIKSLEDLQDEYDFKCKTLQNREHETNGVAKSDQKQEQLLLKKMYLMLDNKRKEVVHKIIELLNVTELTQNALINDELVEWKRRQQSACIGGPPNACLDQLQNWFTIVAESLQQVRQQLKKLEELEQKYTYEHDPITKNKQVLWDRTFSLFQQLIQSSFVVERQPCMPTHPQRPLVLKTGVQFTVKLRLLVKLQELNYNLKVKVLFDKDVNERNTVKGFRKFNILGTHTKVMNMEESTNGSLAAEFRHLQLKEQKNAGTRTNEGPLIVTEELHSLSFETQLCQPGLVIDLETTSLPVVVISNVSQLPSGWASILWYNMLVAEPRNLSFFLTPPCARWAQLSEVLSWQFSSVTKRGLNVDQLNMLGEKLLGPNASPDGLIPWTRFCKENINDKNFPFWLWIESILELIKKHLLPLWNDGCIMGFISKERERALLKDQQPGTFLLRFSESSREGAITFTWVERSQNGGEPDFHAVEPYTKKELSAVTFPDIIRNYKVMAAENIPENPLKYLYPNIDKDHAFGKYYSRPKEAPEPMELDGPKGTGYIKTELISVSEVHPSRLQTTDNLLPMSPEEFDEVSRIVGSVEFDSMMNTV

Regarding `N#Cc1cc(Cc2ccccc2)sc1NC(=O)COc1ccccc1` [Compound 1, N-(5-benzyl-3-cyanothiophen-2-yl)-2-phenoxyacetamide], the “Effect on STAT1 phosphorylation” value on STAT1 is “no effect”. Moreover, the values for the IC50 in the assay with MT300 GBM cells and in the assay on LN299 GBM cells were 0.085 µM and 0.095 µM, respectively. The Antiproliferative effect entry is given as “sensitive” with parental GBM cells and “resistant” with STAT3-KO GBM cells. Besides, in the assay on MT330 glioma xenografts, the “Effect on orthotopic GBM tumor xenografts” value is listed as “markedly reduced”. Further, the Percent inhibition with MCF7 breast cancer cells is on record as 28.06%.

Regarding `N#Cc1cc(Cc2ccccc2)sc1NC(=O)c1cc2ccccc2o1` [Compound 5, N-(5-benzyl-3-cyanothiophen-2-yl)benzofuran-2-carboxamide], the “Inhibition of STAT3 phosphorylation” value on STAT3 is reported as “potently block STAT3 phosphorylation at submicromolar levels”. The “Effect on STAT1 phosphorylation” value on STAT1 is given as “no effect”. Also, the Percent inhibition in the assay on MCF7 breast cancer cells came to 65.67%.

With `N#Cc1cc(Cc2ccccc2)sc1NC(=O)COc1cccc(C(F)(F)F)c1` [Compound 6, N-(5-benzyl-3-cyanothiophen-2-yl)-2-(3-(trifluoromethyl)phenoxy)acetamide], in the assay with MCF7 breast cancer cells, the Percent inhibition turned out to be 51.00%.

`CC(C)(Oc1ccccc1)C(=O)Nc1sc(Cc2ccccc2)cc1C#N` [Compound 7, N-(5-benzyl-3-cyanothiophen-2-yl)-2-methyl-2-phenoxypropanamide]: the “Inhibition of STAT3 phosphorylation” value at STAT3 is “potently block STAT3 phosphorylation at submicromolar levels”. Moreover, on STAT1, the “Effect on STAT1 phosphorylation” value was “no effect”. The Percent inhibition in the assay with MCF7 breast cancer cells came to 23.33%.

(Values after patent US20240368112A1, “BENZYLTHIOPHENE DERIVATIVES” (Rosalind Franklin University of Medicine & Science, priority 2021, published 2024).)
